Data set [1] deals with pyroglutamylated CD47. The experiment in a line: Assay 3 - cell-based potency assay (pyroglutamylation in live cells, total CD47/pE-CD47 dual staining, FACS). On the set-up: species or system human. Conditions: IC50 of CC2C6 signal, KBM7 cells, 72 hours incubation. On the procedure:
Cells were spun for 4 minutes at 1500 rpm and washed once with PBS / 0.5% BSA. Cells were spun down again and the supernatant was removed and incubated in 100 uL antibody staining solution (PBS / 0.5% BSA / 0.1 µg/mL DAPI (4',6-diamidino-2-phenylindole, ThermoFisher Scientific) and a mixture of 1:500 FITC-conjugated anti-human CD47 clone 2D3, which recognizes total CD47 irrespective of its pyroglutamylation state, and 1:500 Alexa647-conjugated anti-human CD47 clone CC2C6, which specifically detects pyroglutamylated CD47) for 2 hours at 4°C. Next, the cells were spun down and washed twice with 2 x 150 µL PBS / 0.5% BSA to remove unbound antibody. Cells were again spun down and taken up in 300 µL FACS buffer before analysis on a Celesta FACS machine (BD Biosciences).
KBM7 cells (Kotecki et al., 1999) were infected with lentivirus produced by transfecting pSCNC-LentiCRISPR-QPCTL or pSCNC-LentiCRISPR-CD47 into HEK-293T cells according to standard protocols. After 24 hours incubation, cells were selected with puromycin (Invivogen, 1 µg/mL) for 48 hours. Cells were stained for total CD47 and pE-CD47 and QPCTL k.o. cells were sorted out as negative for pE-CD47, and CD47 k.o. cells as negative for total CD47, using a FACSAria III and FACS Diva software (BD Biosciences).
In order to test compounds for their effect on pyroglutamylation in live cells, 25000 KBM7 cells per well were seeded in a 96-well U-bottom plate in 150 µl IMDM / 10% FCS / 1% Pen / Strep medium and a 10-point 2-fold dilution range of test compounds. After 72 hours incubation at 37°C, 5% COz, cells were stained for total CD47 and pE-CD47 and analysed on a BD Celesta using FACS Diva software (BD Biosciences). Cells gated for DAPI negativity were recorded and the median fluorescence intensity (MFI) of each sample was transformed to linearly scale between the MFI's of wildtype and CD47 knockout cells (in case of the 2D3 antibody) and the wildtype and QPCTL knockout cells (in case of the CC2C6 antibody). ICso's were calculated by 3 parameter logistic regression of the CC2C6 signal vs. compound concentration, where the top of the sigmoidal curve was fixed at 1, using R and the drc package (http://www.r-project.org, https://cran.r-project.org/web/packages/drc/index.html).

The nature of data set [2]: Microsomal stability, mouse (MLM). Conditions: mouse liver microsomes, 0.5 mg protein/mL, 1 µM test compound. The data set is classed as in vitro ADME, CD-1 mouse. As to the method: (§1) In order to assess metabolic stability of test compounds, commercially acquired CD-1 mouse liver microsome preparations were incubated in 100 µL at a final concentration of 0.5 mg protein/mL, 1 µM test compound, 0.99% methanol and 0.01% DMSO, after a 10 minute pre-incubation at 37°C and addition of 0.1 volumes 10 U/mL NADPH in 10 mM MgCl2. Reactions were stopped by addition of 300 µL cold acetonitrile containing internal standards at t = 0, 5, 10, 20, 30, and 60 minutes. Samples were submitted to LC-MS/MS analysis subsequently and the slope of linear regression of time versus In(% Remaining concentration) was derived to calculate t½ as t½= In(2) /(-Slope). Then Clint(mic) and Clint(liver) were calculated as follows: CLint(mk) = (0.693)/(In vitro T1/2) · (1)/(mg/mL microsomal protein in reaction system) [formula] CLint(liver) = CLint(mic) · (mg microsomes)/(g liver) · (g liver)/(kg body weight) [formula]
Where 45 mg microsomal protein/g liver and 88 g liver/kg mouse bodyweight were used as standardized parameters for mouse microsomes.

Data set [3] can be described thus: Microsomal stability, rat (RLM). It counts as in vitro ADME. Conditions: liver microsomes; SD rat microsomes, 0.5 mg protein/mL, 1 µM test compound. As to the method: as §1
(§2) The same procedure was performed for human microsomes, SD rat microsomes and (beagle) dog microsomes.
Where 45 mg microsomal protein/g liver and 40 g liver/kg rat bodyweight were used as standardized parameters for rat microsomes.

Data set [4] can be described thus: Microsomal stability, dog (DLM). The data set is classed as in vitro ADME. The conditions noted are these: liver microsomes; (beagle) dog microsomes, 0.5 mg protein/mL, 1 µM test compound. As to the method: as §1, §2
Where 45 mg microsomal protein/g liver and 32 g liver/kg dog bodyweight were used as standardized parameters for […].

The target of data set [5] is T1, recombinant QC enzyme (Homo sapiens, UniProt Q16769).
T1 construct: bacterial expression of residues 33-361 of uniprot ID Q16769, fused to a His tag; His tag (cleaved yes); made in house
Briefly: Assay 2 - QC potency, fluorescent enzymatic assay (H-Gln-AMC, coupled pGAPase detection). The data set is classed as biochemical. The conditions noted are these: 1 hour at 37°C. As to the method:
After scale-up, expression and lysis, protein was purified by Ni-NTA IMAC, dialysed in the presence of Factor Xa, further purified by Ni-NTA reverse IMAC and finally filtrated for size on a Superdex 200 16/60 column. Final protein was concentrated using a spin concentrator at 10 kDa molecular weight cut-off and formulated in 150 mM NaCl, 50 mM Tris-HCl, 50% Glycerol, pH 8.0.
Pyroglutamylation was measured by conversion of glutamine-4-amino-7-methylcoumarine (H-Gln-AMC, Bachem) to pyroglutamyl-AMC, which is subsequently a specific substrate for pyroglutamylaminopeptidase (pGAPase, Qiagen), releasing free AMC which can be fluorescently detected. For a typical inhibition assay, 7.5 µL aliquots of threefold dilutions of test compound in 50 mM Tris pH8 buffer were plated in 384-well plates. 15 µL 20 µM h-Gln-AMC (diluted from a 40 mM stock dissolved in 25 mM HEPES using 50 mM Tris-HCl pH 8.0) was added to each well. Finally, 7.5 µL, 3 ng/µL recombinant QC enzyme was added and the reaction mixture was incubated for 1 hour at 37°C. A 5 minute incubation at 98°C was then performed to denature the QC enzyme and stop the reaction.
25 µL of the pyroglutamylation reaction mixture was transferred into an empty plate and to that, 25 µL of the pGAPase enzyme solution was added. Plates were then incubated for 25 minutes at room temperature before fluorescence readings were taken on an Envision2 plate reader with excitation set at 380 nm and emission at 450 nm.
Controls were taken along containing pyroglutamylated-AMC (Bachem, dissolved at 10 mM in DMSO) instead of H-Gln-AMC to control for pGAPase inhibition.
IC50 values are calculated using non-linear regression analysis with GraphPad Prism software.

A short description of data set [6]: Low dose pharmacokinetics. It counts as in vivo. Conditions: mouse, plasma, iv, 1 mg/kg; C57BI/6 mice, intravenously, 1 mg per kg bodyweight. As to the method: In order to determine the stability of test compounds in plasma, low-dose pharmacokinetic experiments were carried out in C57BI/6 mice. Test compounds were dissolved at 0.1 mg/mL in an appropriate vehicle and dosed intravenously at 1 mg per kg bodyweight in three animals per compound. At various (between 5 and 9) timepoints after injection, up to 24 hours, blood samples were drawn, plasma isolated and test compound concentrations were determined using LC-MS/MS. t½ values were subsequently calculated using Phoenix WinNonlin 6.3 software and averaged over the three mice per test compound.

Each structure is given as a SMILES string.

T1 sequence (Q16769 33-361): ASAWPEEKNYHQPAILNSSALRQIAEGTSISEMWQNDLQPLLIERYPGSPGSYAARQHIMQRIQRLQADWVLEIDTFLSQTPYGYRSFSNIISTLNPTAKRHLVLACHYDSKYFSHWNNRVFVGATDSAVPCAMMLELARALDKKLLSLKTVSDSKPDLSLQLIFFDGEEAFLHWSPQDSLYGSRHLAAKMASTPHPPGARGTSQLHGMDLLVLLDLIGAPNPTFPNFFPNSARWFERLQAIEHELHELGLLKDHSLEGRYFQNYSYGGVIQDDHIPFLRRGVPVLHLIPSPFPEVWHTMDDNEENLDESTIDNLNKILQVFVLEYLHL

As usually defined, the IC50 is the concentration that gives 50% inhibition. One may read the CLint scaled as the rate of metabolic loss divided by the concentration. A low value points to slow turnover. Consider `O=C1OCC(c2ccc(C3CCC(F)(F)CC3)cc2)N1c1ccc2[nH]cnc2c1` (single isomer, unassigned) [(19)-ent2], for which the IC50 in data set [1] amounted to 3730 nM. For the same compound, the values for the CLint scaled at 1 µM in data set [2], in data set [3] and in data set [4] were 339 mL/min/kg, 49.9 mL/min/kg and 21.8 mL/min/kg, respectively.

In general, half-life refers to the time needed for the level to fall by half in the phase considered. The low end stands for fast loss, the high end for slow loss. For the compound `O=C1OC[C@H](c2ccc(-c3cnn(C(F)(F)F)c3)cc2F)N1c1ccc2[nH]cnc2c1` [Compound (1)], the IC50 in data set [5] was found to be 10.3 nM; in data set [1] (Homo sapiens, KBM-7, 72 h) it was 92.1 nM. Further, the CLint scaled at 1 µM in data set [2] is 67.5 mL/min/kg. Besides, the half-life in data set [6] was 3.99 to 4.58 h.

As to `O=C1OCC(c2ccc(N3CCCC3)cc2)N1c1ccc2[nH]cnc2c1` (single isomer, unassigned) [(18)-ent2], the results for the IC50 in data set [5] and in data set [1] were 31.2 nM and 3490 nM, respectively. Further, the CLint scaled at 1 µM in data set [2] was 488 mL/min/kg; in data set [3], 1070 mL/min/kg; in data set [4], 32.8 mL/min/kg.

The values are drawn from EP4455142A1, “NOVEL INHIBITOR OF QPCTL AND/OR QC” (Scenic Immunology B.V., priority 2023, dated 2024).
